Consider 15 molecules from ChEMBL document CHEMBL3120081, “Imidazopyridazine hepatitis C virus polymerase inhibitors. Structure-activity relationship studies and the discovery of a novel, traceless prodrug mechanism” (J Med Chem, 2014).

Data set [1] deals with Hepatitis C virus. The data set is described as follows: Antiviral activity against Hepatitis C virus genotype 1a infected in human HuH7 cells after 48 hrs by luciferase reporter gene assay. It is filed as functional, organism-based, Hepacivirus hominis. Particulars: subtype 1a, Huh-7, 48 h. Background: A reporter such as luciferase makes a cellular process visible.
Data set [2] deals with Hepatitis C virus. As to the kind of experiment: Antiviral activity against Hepatitis C virus genotype 1b infected in human HuH7 cells after 48 hrs by luciferase reporter gene assay. It is filed as functional, organism-based, Hepacivirus hominis. Particulars: Huh-7, 48 h.
Data set [3] is described as follows: Solubility of the compound in phosphate buffered saline at pH 7.4 after 1 hr by chemiluminescence nitrogen detection assay. In kind it is physicochemical.
The test system of a further data set is Hepatocyte. The data set is described as follows: Stability in rat hepatocytes at 0.5 uM by LC/MS/MS analysis. In kind it is ADME, cell-based.
Data set [4] is described as follows: Oral bioavailability in CD rat at 5 mg/kg by LC/MS/MS analysis. In kind it is ADME, organism-based. Particulars: in vivo.
A short description of data set [5]: Stability of the compound in water at 1 uM at pH 7 up to 60 mins by LC/MS/MS analysis. Particulars: buffer, pH 7, 1 h. It is filed as physicochemical.
The nature of data set [6]: Stability in rat microsomes at 0.5 uM by LC/MS/MS analysis. It is filed as ADME, Microsome.
Data set [7] can be described thus: Oral bioavailability in beagle dog at 5 mg/kg by LC/MS/MS analysis. In kind it is ADME, organism-based, Canis lupus familiaris. The conditions noted are these: in vivo.
Data set [8] is described as follows: Stability of the compound in blood (unknown origin) at 1 uM up to 60 mins by LC/MS/MS analysis. It is filed as ADME, tissue-based. Particulars: 1 h.
Data set [9] is described as follows: Stability of the compound in water at 1 uM at pH 2 up to 60 mins by LC/MS/MS analysis. In kind it is physicochemical. The conditions noted are these: buffer, pH 2, 1 h.
Data set [10] can be described thus: Cmax in CD rat at 30 mg/kg by LC/MS/MS analysis. In kind it is ADME, organism-based. Particulars: in vivo. Also on record: dose 30 mg/kg.
Data set [11] is described as follows: Cmax in CD rat at 10 mg/kg by LC/MS/MS analysis. Also on record: dose 10 mg/kg. The conditions noted are these: in vivo. It is filed as ADME, organism-based.
A short description of data set [12]: Clearance in CD rat at 0.5 mg/kg, iv by LC/MS/MS analysis. In kind it is ADME, organism-based. Particulars: in vivo. The arrangement: dose 0.5 mg/kg, route intravenous.
Data set [13] in a line: Intrinsic clearance in CD rat microsomes. It is filed as ADME, Microsome.
Data set [14] can be described thus: Cmax in CD rat at 5 mg/kg by LC/MS/MS analysis. It is filed as ADME, organism-based. The arrangement: dose 5 mg/kg. Particulars: in vivo.
The nature of data set [15]: Solubility of the compound in neutral aqueous media at pH 6.8. It is filed as physicochemical.
Data set [16] can be described thus: AUC in CD rat at 30 mg/kg by LC/MS/MS analysis. It is filed as ADME, organism-based. Also on record: dose 30 mg/kg. The conditions noted are these: plasma.
A short description of data set [17]: Cmax in CD rat at 100 mg/kg by LC/MS/MS analysis. In kind it is ADME, organism-based. Also on record: dose 100 mg/kg. The conditions noted are these: in vivo.
Data set [18] can be described thus: Oral bioavailability in CD rat at 1 mg/kg by LC/MS/MS analysis. In kind it is ADME, organism-based. The conditions noted are these: in vivo.
Data set [19] is described as follows: Cmax in CD rat at 300 mg/kg by LC/MS/MS analysis. In kind it is ADME, organism-based. The arrangement: dose 300 mg/kg. Particulars: in vivo.
Data set [20] in a line: Half life in CD rat at 0.5 mg/kg, iv by LC/MS/MS analysis. In kind it is ADME, organism-based. The arrangement: dose 0.5 mg/kg, route intravenous. The conditions noted are these: in vivo.
The nature of data set [21]: AUC in CD rat at 10 mg/kg by LC/MS/MS analysis. It is filed as ADME, organism-based. Also on record: dose 10 mg/kg. The conditions noted are these: plasma.
Data set [22] addresses Voltage-gated inwardly rectifying potassium channel KCNH2 (Homo sapiens, UniProt Q12809). The data set is described as follows: Inhibition of human ERG by patch-clamp technique. A general note: Patch clamp records ionic current or voltage across a cell membrane.
Data set [23] can be described thus: AUC in CD rat at 5 mg/kg by LC/MS/MS analysis. Also on record: dose 5 mg/kg. In kind it is ADME, organism-based. Particulars: plasma.
Data set [24] in a line: AUC in CD rat at 100 mg/kg by LC/MS/MS analysis. In kind it is ADME, organism-based. Also on record: dose 100 mg/kg. The conditions noted are these: plasma.
Data set [25] can be described thus: Volume of distribution in CD rat at 0.5 mg/kg, iv by LC/MS/MS analysis. In kind it is ADME, organism-based. Also on record: dose 0.5 mg/kg, route intravenous. Particulars: in vivo.
The nature of data set [26]: AUC in CD rat at 1 mg/kg, po by LC/MS/MS analysis. The conditions noted are these: plasma. Also on record: dose 1 mg/kg, route oral. In kind it is ADME, organism-based.
Data set [27] is described as follows: AUC in CD rat at 300 mg/kg by LC/MS/MS analysis. It is filed as ADME, organism-based. The arrangement: dose 300 mg/kg. Particulars: plasma.

Converted amounts (≈) assume the structure as drawn.

Sequence of Voltage-gated inwardly rectifying potassium channel KCNH2 (Q12809 whole entry): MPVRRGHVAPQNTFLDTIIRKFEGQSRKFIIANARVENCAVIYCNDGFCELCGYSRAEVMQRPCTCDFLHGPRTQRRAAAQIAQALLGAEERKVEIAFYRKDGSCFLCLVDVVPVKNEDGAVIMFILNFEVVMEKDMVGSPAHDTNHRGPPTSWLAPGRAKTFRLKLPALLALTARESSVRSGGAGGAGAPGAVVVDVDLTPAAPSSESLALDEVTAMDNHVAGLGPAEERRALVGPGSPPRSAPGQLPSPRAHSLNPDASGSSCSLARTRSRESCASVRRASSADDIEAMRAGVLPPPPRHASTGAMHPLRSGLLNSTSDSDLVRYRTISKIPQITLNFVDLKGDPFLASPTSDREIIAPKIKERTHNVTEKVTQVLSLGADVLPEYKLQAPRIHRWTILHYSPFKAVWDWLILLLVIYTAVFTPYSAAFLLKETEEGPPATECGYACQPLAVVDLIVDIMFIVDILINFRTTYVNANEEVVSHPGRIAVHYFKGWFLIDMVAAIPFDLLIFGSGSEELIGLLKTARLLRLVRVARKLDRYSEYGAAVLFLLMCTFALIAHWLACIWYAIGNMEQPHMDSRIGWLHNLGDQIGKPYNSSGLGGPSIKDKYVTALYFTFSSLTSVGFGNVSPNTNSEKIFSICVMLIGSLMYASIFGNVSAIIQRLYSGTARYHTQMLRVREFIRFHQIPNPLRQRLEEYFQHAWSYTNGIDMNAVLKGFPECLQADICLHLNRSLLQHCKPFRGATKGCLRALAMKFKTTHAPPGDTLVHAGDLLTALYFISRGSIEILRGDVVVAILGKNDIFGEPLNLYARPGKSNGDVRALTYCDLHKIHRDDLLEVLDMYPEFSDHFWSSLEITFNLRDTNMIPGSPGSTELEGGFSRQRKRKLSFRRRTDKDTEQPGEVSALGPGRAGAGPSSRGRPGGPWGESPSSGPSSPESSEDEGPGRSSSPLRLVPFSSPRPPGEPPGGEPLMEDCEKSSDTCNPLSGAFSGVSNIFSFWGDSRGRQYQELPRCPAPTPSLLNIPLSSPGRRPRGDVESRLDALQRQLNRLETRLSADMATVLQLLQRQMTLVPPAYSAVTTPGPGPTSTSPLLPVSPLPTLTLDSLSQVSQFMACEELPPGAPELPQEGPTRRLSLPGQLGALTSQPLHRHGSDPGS

Regarding `COc1ccc(-c2cc(Cn3cc4nc(-c5cccc(F)c5F)nc-4cn3)on2)cc1`, the results for the EC50 in the data set with Hepatitis C virus [1] and in the data set with Hepatitis C virus [2] were 300 nM and 90 nM, respectively.
Regarding `CCCOc1ccc(-c2cc(Cn3cc4nc(-c5cccc(F)c5F)nc-4cn3)on2)c(C(F)(F)F)c1`, in [3], the kinetic solubility at 1 h worked out at 1.6 µM (≈ 0.825 µg/mL). In addition, the Stability entry (with Hepatocyte; in [5]; in data set [6]; in data set [8]; in [9]) was “Stable” throughout. Further, the bioavailability in data set [4] is 33%; in data set [7] it was 12%. Further, the figures for the EC50 with Hepatitis C virus [1] and with Hepatitis C virus [2] were 21 nM and 3 nM, respectively.
In the case of `Fc1ccccc1-c1nc2cnn(Cc3cc(-c4ccc(C(F)(F)F)cc4C(F)(F)F)no3)cc-2n1`, the EC50 in the data set with Hepatitis C virus [1] came to 3700 nM; with Hepatitis C virus [2] it was 110 nM.
`Fc1cccc(F)c1-c1nc2cnn(Cc3cc(-c4ccc(C(F)(F)F)cc4C(F)(F)F)no3)cc-2n1` showed an EC50 in the data set on Hepatitis C virus [2] of 5000 nM.
For the molecule `FC(F)(F)c1ccc(-c2cc(Cn3cc4nc(-c5cccs5)nc-4cn3)on2)c(C(F)(F)F)c1`, a half-maximal effect in the data set with Hepatitis C virus [2] (EC50) was put at 1750 nM.
With `CCCOc1ccc(-c2cc(Cn3cc4nc(-c5cccc(F)c5F)nc-4cn3)no2)cc1`, the EC50 with Hepatitis C virus [1] worked out at 110 nM; with Hepatitis C virus [2], 40 nM.
Turning to `Fc1cccc(-c2nc3cnn(Cc4cn(-c5ccc(C(F)(F)F)cc5C(F)(F)F)cn4)cc-3n2)c1F`, the EC50 in the data set with Hepatitis C virus [1] is greater than 50000 nM; in the data set on Hepatitis C virus [2], 7000 nM.
For the molecule `Fc1cccc(-c2nc3cnn(CCCc4ccc(C(F)(F)F)cc4C(F)(F)F)cc-3n2)c1F`, the figures for the EC50 with Hepatitis C virus [1] and in the data set on Hepatitis C virus [2] were 16000 nM and 52000 nM, respectively.
In the case of `Fc1cccc(-c2nc3cnn(Cc4ccc(-c5ccc(C(F)(F)F)cc5C(F)(F)F)cc4)cc-3n2)c1F`, the EC50 worked out at 120 nM in the data set with Hepatitis C virus [1] and 18 nM with Hepatitis C virus [2].
On to `Fc1cccc(-c2nc3cnn(Cc4ccc(-c5ccc(C(F)(F)F)cc5C(F)(F)F)cn4)cc-3n2)c1F`, for which the EC50 stood at 300 nM in the data set with Hepatitis C virus [1] and 40 nM in the data set on Hepatitis C virus [2].
Regarding `Fc1cccc(-c2nc3cnn(Cc4ccc(-c5ccc(C(F)(F)F)cc5C(F)(F)F)nc4)cc-3n2)c1F`, the Cmax in [10] is 2800 ng/mL; in data set [11], 2700 ng/mL; in data set [14], 1100 ng/mL; in [17], 7600 ng/mL; in data set [19], 27300 ng/mL. In data set [12], this molecule yielded a clearance of 9 mL/min/kg. For the same molecule, the CLint scaled in data set [13] came out at 22 mL/min/kg. This molecule had a solubility in data set [15] of 9 µg/mL (≈ 16.8 µM). The AUC in [16] amounted to 24000 ng·h/mL; in [21], 24000 ng·h/mL; in [23], 8000 ng·h/mL; in [24], 69000 ng·h/mL; in data set [26], 1500 ng·h/mL; in data set [27], 280000 ng·h/mL. Moreover, the EC50 in the data set on Hepatitis C virus [1] was 160 nM; with Hepatitis C virus [2] it was 16 nM; in data set [22], 7940 nM. This molecule also came in with a bioavailability in data set [18] of 78%. Besides, the half-life in data set [20] is 3.14 h. The molecule also returned a Vd in [25] of 2.04 L/kg.
As to `CCCOc1ccc(-c2ccc(Cn3cc4nc(-c5cccc(F)c5F)nc-4cn3)nn2)c(C(F)(F)F)c1`, the EC50 with Hepatitis C virus [1] was determined as 18 nM; in the data set on Hepatitis C virus [2], 7 nM.
With `CCCOc1ccc(-c2cnc(Cn3cc4nc(-c5cccc(F)c5F)nc-4cn3)cn2)c(C(F)(F)F)c1`, the values for the EC50 in the data set with Hepatitis C virus [1] and in the data set on Hepatitis C virus [2] were 60 nM and 30 nM, respectively.
As for `CC(c1cc(-c2ccc(C(F)(F)F)cc2C(F)(F)F)no1)n1cc2nc(-c3cccc(F)c3F)nc-2cn1` (racemic), the EC50 in the data set on Hepatitis C virus [1] turned out to be 900 nM; with Hepatitis C virus [2], 80 nM.
As to `Fc1ccccc1-c1nc2ccn(Cc3ccc(-c4ccc(C(F)(F)F)cc4C(F)(F)F)nn3)cc-2n1` [TEGOBUVIR], the EC50 in the data set on Hepatitis C virus [2] is 5 nM.

Broadly, the EC50 is the concentration giving half of the maximal effect. Lower therefore signals a more potent agent. Broadly, the solubility (kinetic) is the concentration staying in solution when a stock, usually in DMSO, is diluted into the medium. One may read the bioavailability as dose-corrected exposure relative to a reference, in per cent. High values mean much systemic uptake, low ones little systemic uptake. As usually defined, the Cmax is the highest concentration seen after dosing. A word on the clearance: it is the volume of plasma or blood freed of the substance per unit of time. As usually defined, the CLint scaled is the capacity of the preparation to metabolise the compound, expressed as a volume cleared per time. A low value points to greater metabolic stability. The solubility is the concentration that dissolves in the medium under given conditions. A high value points to a readily soluble substance. As a reminder, the AUC is the area under the concentration-time curve, a measure of exposure. Read a low AUC as less exposure. As a reminder, the half-life is how long it takes for the measured level to halve. As usually defined, the Vd is a proportionality between amount in the body and measured concentration, not a real space. A low value points to little distribution into tissue.
